One data set relates to Staphylococcus aureus. Put plainly: Bacterial cytotoxicity / growth inhibition of S. aureus in TSB medium (OD600). The conditions noted are these: concentration range of 10 μM to 400 μM. It is filed as cell-based.
The format of data set [1] is physicochemical. The conditions noted are these: buffer. The procedure: The kinetics of Fe^2+ removal was followed by measuring the decrease of Fe^2+ ion concentration in aqueous solution where the dialysis bag containing the PVP-coated CaPB NPs was immersed. The simultaneous increase of Ca^2+ ion concentration in the same solution was also determined quantitatively by AAS to verify the kinetics (FIG. 5b).

On to `[Ca+2].[Cl-].[Cl-]` [CaCl2], for which the “effect on growth of S. aureus” value in the data set on Staphylococcus aureus is on record as “no effect on growth”. For the compound KCa[Fe^III(CN)6].n H2O [CaPB^III NPs], the “half-life T1/2 of Fe^2+ removal” value in data set [1] came to 55 min.

Source of the values: patent US20200016086A1, “Nanoparticulate Materials and Methods for Targeting Iron Acquisition and Metabolism for Treating Bacterial Infections” (KENT STATE UNIVERSITY, priority 2017, published 2020).
